Assay results: US12209096B2, “Compounds and compositions for inducing chondrogenesis” (NOVARTIS AG, priority 2017, dated 2025)
Where two headings read alike, the source gives them in different places.

Test system: NHACs
Assay: calcium flux assay
Format: cell-based, human
Settings: for Emax: read-out: (A) % Efficacy
Description: NHACs were plated in 1536 Greiner plate at 2000 cells/well in 4 ul volume. 24 hours later, 4 ul of Calcium 5 dye solution (Hank's Balanced Salt/HEPES buffer containing 5 mM of Probenecid) was then added and incubated for 1 hour at room temperature. Fluorescence readings at excitation wavelength of 470-495 nm and emission wavelength of 515-575 nm were done using FLIPR high-throughput screening system (Molecular Devices, Sunnyvale, CA). The test compound was then added to each well at the indicated dose. Signal was measured prior compound dispense and after using a first interval of 1 second for 60 reads and second interval of 3 second for 20 reads. Data was analyzed using Molecular Devices ScreenWorks® Software.

SMILES: Cc1cc([C@H]2[C@H]3O[C@H]([C@@H]4C[C@@H]43)[C@@H]2C(=O)Nc2ccc(Cl)cc2C#N)ccn1 [Example 67, (1S,2S,4R,5R,6R,7S)—N-(4-chloro-2-cyanophenyl)-7-(2-methylpyridin-4-yl)-8-oxatricyclo[3.2.1.0^2,4]octane-6-carboxamide]
- EC50 (Homo sapiens): > 50 µM
- Emax (Homo sapiens): 39%

SMILES: O=C(Nc1ccc(Cl)c(Cl)c1)[C@H]1[C@@H](c2ccncc2)[C@H]2O[C@@H]1C[C@@H]2O (racemic) [Example 47, rac-(1R,2S,3S,4R,5S)—N-(3,4-dichlorophenyl)-5-hydroxy-3-(pyridin-4-yl)-7-oxabicyclo[2.2.1]heptane-2-carboxamide]
- EC50 (Homo sapiens): 7.8 µM
- Emax (Homo sapiens): 38%

SMILES: O=C(Nc1ccc(Cl)c(Cl)c1)[C@H]1[C@H]2O[C@H]([C@@H]3C[C@@H]32)[C@H]1c1cncnc1 (single isomer, unassigned) [Example 28]
- EC50 (Homo sapiens): 23 µM
- Emax (Homo sapiens): 167%

SMILES: O=C(Nc1ccc(Cl)c(Cl)c1)[C@H]1[C@@H]2O[C@@H]([C@H]3C[C@H]32)[C@@H]1c1ccnc(F)c1F (racemic) [Example 122, rac-(1S,2S,4R,5R,6R,7S)—N-(3,4-dichlorophenyl)-7-(2,3-difluoropyridin-4-yl)-8-oxatricyclo[3.2.1.0^2,4]octane-6-carboxamide]
- EC50 (Homo sapiens): 5 µM
- Emax (Homo sapiens): 32%

SMILES: Cc1cc([C@H]2[C@H]3O[C@H](C[C@H]3F)[C@H]2C(=O)Nc2ccc(Cl)c(Cl)c2)ccn1 [Example 13, (1R,2S,3S,4R,5R)-N-(3,4-dichlorophenyl)-5-fluoro-3-(2-methylpyridin-4-yl)-7-oxabicyclo[2.2.1]heptane-2-carboxamide]
- EC50 (Homo sapiens): 4.5 µM
- Emax (Homo sapiens): 68%

SMILES: O=C(Nc1cccc(C(F)(F)F)c1)[C@@H]1[C@@H]2O[C@@H]([C@H]3C[C@H]32)[C@@H]1c1cncnc1 [Example 37, (1S,2S,4R,5R,6S,7S)-7-(pyrimidin-5-yl)-N-(3-(trifluoromethyl)phenyl)-8-oxatricyclo[3.2.1.0^2,4]octane-6-carboxamide]
- EC50 (Homo sapiens): > 50 µM
- Emax (Homo sapiens): 26%

SMILES: CN(C)c1ncc([C@H]2[C@H]3O[C@H](C[C@@H]3O)[C@@H]2C(=O)Nc2ccc(Cl)c(Cl)c2)cn1 [Example 144, (1R,2R,3S,4R,5S)—N-(3,4-dichlorophenyl)-3-(2-(dimethylamino)pyrimidin-5-yl)-5-hydroxy-7-oxabicyclo[2.2.1]heptane-2-carboxamide]
- EC50 (Homo sapiens): 30 µM
- Emax (Homo sapiens): 183%

SMILES: COc1cc([C@@H]2[C@@H](C(=O)Nc3ccc(Cl)c(Cl)c3)[C@@H]3O[C@H]2C[C@H]3F)ccn1 [Example 104, (1S,2R,3S,4S,6R)—N-(3,4-dichlorophenyl)-6-fluoro-3-(2-methoxypyridin-4-yl)-7-oxabicyclo[2.2.1]heptane-2-carboxamide]
- EC50 (Homo sapiens): 14 µM
- Emax (Homo sapiens): 96%

SMILES: Nc1ncc([C@H]2[C@H]3O[C@H]([C@@H]4C[C@@H]43)[C@H]2C(=O)Nc2ccc(Cl)c(Cl)c2)cn1 [Example 39, (1S,2S,4R,5R,6S,7S)-7-(2-aminopyrimidin-5-yl)-N-(3,4-dichlorophenyl)-8-oxatricyclo[3.2.1.0^2,4]octane-6-carboxamide]
- EC50 (Homo sapiens): 0.53 µM
- Emax (Homo sapiens): 40%

SMILES: Cc1nccc([C@H]2[C@H]3O[C@H](C[C@@H]3O)[C@@H]2C(=O)Nc2ccc(Cl)c(Cl)c2)n1 [Example 82, (1R,2R,3S,4R,5S)—N-(3,4-dichlorophenyl)-5-hydroxy-3-(2-methylpyrimidin-4-yl)-7-oxabicyclo[2.2.1]heptane-2-carboxamide]
- EC50 (Homo sapiens): > 50 µM
- Emax (Homo sapiens): 74%

SMILES: Cc1cc([C@H]2[C@H]3O[C@H](C[C@@H]3F)[C@H]2C(=O)Nc2cnc(Cl)c(Cl)c2)ccn1 [Example 18, (1R,2S,3S,4R,5S)-N-(5,6-dichloropyridin-3-yl)-5-fluoro-3-(2-methylpyridin-4-yl)-7-oxabicyclo[2.2.1]heptane-2-carboxamide]
- EC50 (Homo sapiens): > 50 µM
- Emax (Homo sapiens): 0%

SMILES: O=C(Nc1ccc(Cl)c(Cl)c1)[C@@H]1[C@H](c2ccnc(F)c2)[C@@H]2O[C@H]1C[C@H]2O (single isomer, unassigned) [Example 52b]
- EC50 (Homo sapiens): > 50 µM
- Emax (Homo sapiens): 1%

SMILES: O=C(Nc1cccc(C(F)(F)F)c1)[C@H]1[C@@H]2O[C@@H]([C@H]3C[C@H]32)[C@@H]1c1ccncc1 [Example 131, (1S,2S,4R,5R,6R,7S)-7-(pyridin-4-yl)-N-(3-(trifluoromethyl)phenyl)-8-oxatricyclo[3.2.1.0^2,4]octane-6-carboxamide]
- EC50 (Homo sapiens): 19 µM
- Emax (Homo sapiens): 360%

SMILES: COc1ccc(NC(=O)[C@H]2[C@@H]3O[C@@H]([C@H]4C[C@H]43)[C@@H]2c2ccnc(F)c2F)cn1 [Example 127, (1S,2S,4R,5R,6R,7S)-7-(2,3-difluoropyridin-4-yl)-N-(6-methoxypyridin-3-yl)-8-oxatricyclo[3.2.1.0^2,4]octane-6-carboxamide]
- EC50 (Homo sapiens): > 50 µM
- Emax (Homo sapiens): 62%

SMILES: Cc1cc([C@H]2[C@H]3O[C@H]([C@@H]4C[C@@H]43)[C@@H]2C(=O)Nc2cccc(C(F)(F)F)c2)ccn1 (racemic) [Example 121, rac-(1S,2S,4R,5R,6R,7S)-7-(2-methylpyridin-4-yl)-N-(3-(trifluoromethyl)phenyl)-8-oxatricyclo[3.2.1.0^2,4]octane-6-carboxamide]
- EC50 (Homo sapiens): 26 µM
- Emax (Homo sapiens): 353%

SMILES: O=C(Nc1ccc(Cl)c(Cl)c1)[C@@H]1[C@@H]2O[C@@H]([C@H]3C[C@H]32)[C@@H]1c1ccncc1 [Example 44, (1S,2S,4R,5R,6S,7S)—N-(3,4-dichlorophenyl)-7-(pyridin-4-yl)-8-oxatricyclo[3.2.1.0^2,4]octane-6-carboxamide]
- EC50 (Homo sapiens): > 50 µM
- Emax (Homo sapiens): 0%

SMILES: Cc1cc([C@@H]2[C@@H](C(=O)Nc3ccc(Cl)c(Cl)c3)[C@@H]3O[C@H]2C[C@H]3F)ccn1 [Example 106, (1S,2R,3S,4S,6R)—N-(3,4-dichlorophenyl)-6-fluoro-3-(2-methylpyridin-4-yl)-7-oxabicyclo[2.2.1]heptane-2-carboxamide]
- EC50 (Homo sapiens): 24 µM
- Emax (Homo sapiens): 84%

SMILES: O=C(Nc1ccc(Cl)c(Cl)c1)[C@@H]1[C@@H](c2cccc(C(F)(F)F)n2)[C@H]2O[C@@H]1C[C@@H]2O [Example 140, (1R,2R,3S,4R,5S)—N-(3,4-dichlorophenyl)-5-hydroxy-3-(6-(trifluoromethyl)pyridin-2-yl)-7-oxabicyclo[2.2.1]heptane-2-carboxamide]
- EC50 (Homo sapiens): 15 µM
- Emax (Homo sapiens): 292%

SMILES: O=C(Nc1ccc(Cl)c(Cl)c1)[C@H]1[C@@H](c2cncnc2)[C@H]2O[C@@H]1C[C@@H]2O [Example 51, (1R,2S,3S,4R,5S)—N-(3,4-dichlorophenyl)-5-hydroxy-3-(pyrimidin-5-yl)-7-oxabicyclo[2.2.1]heptane-2-carboxamide]
- EC50 (Homo sapiens): > 50 µM
- Emax (Homo sapiens): 0%

SMILES: COc1ccc(NC(=O)[C@@H]2[C@@H]3O[C@@H]([C@H]4C[C@H]43)[C@@H]2c2cccc(C(F)(F)F)n2)cn1 [Example 35, (1S,2S,4R,5R,6S,7S)—N-(6-methoxypyridin-3-yl)-7-(6-(trifluoromethyl)pyridin-2-yl)-8-oxatricyclo[3.2.1.0^2,4]octane-6-carboxamide]
- EC50 (Homo sapiens): > 50 µM
- Emax (Homo sapiens): 0%

SMILES: CO[C@H]1C[C@H]2O[C@@H]1[C@H](c1ccnc(C)c1)[C@@H]2C(=O)Nc1ccc(Cl)c(Cl)c1 [Example 63, (1R,2S,3S,4R,5S)—N-(3,4-dichlorophenyl)-5-methoxy-3-(2-methylpyridin-4-yl)-7-oxabicyclo[2.2.1]heptane-2-carboxamide]
- EC50 (Homo sapiens): > 50 µM
- Emax (Homo sapiens): 9%

SMILES: COc1cc([C@H]2[C@H]3O[C@H]([C@@H]4C[C@@H]43)[C@H]2C(=O)Nc2cnc(Cl)c(Cl)c2)ccn1 [Example 1, (1S,2S,4R,5R,6S,7S)—N-(5,6-dichloropyridin-3-yl)-7-(2-methoxypyridin-4-yl)-8-oxatricyclo[3.2.1.0^2,4]octane-6-carboxamide]
- EC50 (Homo sapiens): 3.4 µM
- Emax (Homo sapiens): 164%

SMILES: O=C(Nc1ccc(Cl)c(Cl)c1)[C@H]1[C@@H]2O[C@@H]([C@H]3C[C@H]32)[C@@H]1c1cncnc1 (racemic) [Example 126, rac-(1S,2S,4R,5R,6R,7S)—N-(3,4-dichlorophenyl)-7-(pyrimidin-5-yl)-8-oxatricyclo[3.2.1.0^2,4]octane-6-carboxamide]
- EC50 (Homo sapiens): 10 µM
- Emax (Homo sapiens): 212%

SMILES: Cc1cc([C@H]2[C@H](C(=O)Nc3ccc(Cl)c(Cl)c3)[C@@H]3C[C@](C)(O)[C@H]2O3)ccn1 [Example 179, (1S,2S,3R,4S,5S)—N-(3,4-dichlorophenyl)-5-hydroxy-5-methyl-3-(2-methylpyridin-4-yl)-7-oxabicyclo[2.2.1]heptane-2-carboxamide]
- EC50 (Homo sapiens): > 50 µM
- Emax (Homo sapiens): 22%

SMILES: CO[C@H]1C[C@H]2O[C@@H]1[C@H](c1ccnc(C)c1)[C@H]2C(=O)Nc1ccc(Cl)c(Cl)c1 [Example 155, (1R,2R,3S,4R,5S)—N-(3,4-dichlorophenyl)-5-methoxy-3-(2-methylpyridin-4-yl)-7-oxabicyclo[2.2.1]heptane-2-carboxamide]
- EC50 (Homo sapiens): 26 µM
- Emax (Homo sapiens): 262%

SMILES: O=C(Nc1ccc(Cl)c(Cl)c1)[C@@H]1[C@@H](c2ccnc(F)c2)[C@H]2O[C@@H]1C[C@@H]2F [Example 111, (1R,2R,3S,4R,5S)—N-(3,4-dichlorophenyl)-5-fluoro-3-(2-fluoropyridin-4-yl)-7-oxabicyclo[2.2.1]heptane-2-carboxamide]
- EC50 (Homo sapiens): 28 µM
- Emax (Homo sapiens): 87%

SMILES: O=C(Nc1cnc(Cl)c(Cl)c1)[C@@H]1[C@@H]2O[C@@H]([C@H]3C[C@H]32)[C@@H]1c1ccncc1 [Example 43a, (1S,2S,4R,5R,6S,7S)—N-(5,6-dichloropyridin-3-yl)-7-(pyridin-4-yl)-8-oxatricyclo[3.2.1.0^24]octane-6-carboxamide]
- (A) % Efficacy: 0%
- EC50: > 50 µM

SMILES: O=C(Nc1ccc(Cl)c(Cl)c1)[C@H]1[C@@H](c2ccnc(F)c2F)[C@H]2O[C@@H]1C[C@@H]2O [Example 59, (1R,2S,3S,4R,5S)—N-(3,4-dichlorophenyl)-3-(2,3-difluoropyridin-4-yl)-5-hydroxy-7-oxabicyclo[2.2.1]heptane-2-carboxamide]
- EC50 (Homo sapiens): 1.2 µM
- Emax (Homo sapiens): 254%
